Drawing on patent US8039514B2, “Sulfonamide compounds and use thereof” (Asahi Kasei Pharma Corporation, priority 2008, dated 2011), this text covers IC50 for 21 compounds.

This assay concerns the target T1, human calcium-sensing receptor (CaSR) (Homo sapiens, UniProt P41180).
T1 construct: expressed in transfected cells
T1 sequence (P41180 20-1078): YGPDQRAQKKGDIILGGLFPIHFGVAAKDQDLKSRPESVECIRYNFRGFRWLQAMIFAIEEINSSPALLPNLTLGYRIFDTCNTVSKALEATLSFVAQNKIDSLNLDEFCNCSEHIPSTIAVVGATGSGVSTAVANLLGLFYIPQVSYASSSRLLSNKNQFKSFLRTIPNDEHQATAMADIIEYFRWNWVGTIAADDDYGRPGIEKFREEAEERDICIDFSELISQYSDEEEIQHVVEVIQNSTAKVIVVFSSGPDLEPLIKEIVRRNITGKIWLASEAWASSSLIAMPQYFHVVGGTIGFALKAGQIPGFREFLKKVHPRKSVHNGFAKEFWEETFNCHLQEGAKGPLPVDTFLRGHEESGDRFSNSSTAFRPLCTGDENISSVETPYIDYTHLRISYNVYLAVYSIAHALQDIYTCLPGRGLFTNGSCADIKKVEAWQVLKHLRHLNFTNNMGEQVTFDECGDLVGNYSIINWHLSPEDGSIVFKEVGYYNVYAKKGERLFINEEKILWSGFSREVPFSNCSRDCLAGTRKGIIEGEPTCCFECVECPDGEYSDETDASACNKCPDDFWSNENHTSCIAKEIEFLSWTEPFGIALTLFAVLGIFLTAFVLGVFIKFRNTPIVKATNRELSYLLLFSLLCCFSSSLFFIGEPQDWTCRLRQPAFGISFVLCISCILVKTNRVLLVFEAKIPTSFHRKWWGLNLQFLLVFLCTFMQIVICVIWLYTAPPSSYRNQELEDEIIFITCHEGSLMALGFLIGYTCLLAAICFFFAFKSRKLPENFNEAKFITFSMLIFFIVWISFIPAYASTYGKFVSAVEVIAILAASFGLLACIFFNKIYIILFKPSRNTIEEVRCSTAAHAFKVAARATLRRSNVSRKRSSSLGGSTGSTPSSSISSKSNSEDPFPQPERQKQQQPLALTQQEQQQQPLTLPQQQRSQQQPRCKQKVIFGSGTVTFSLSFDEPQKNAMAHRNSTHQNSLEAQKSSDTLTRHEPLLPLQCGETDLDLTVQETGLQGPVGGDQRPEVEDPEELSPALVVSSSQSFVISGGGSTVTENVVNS
As to the kind of experiment: intracellular Ca assay, CaSR antagonist activity in HEK293/hCaSR cells. Format: cell-based. To be noted: Fura2-AM, inhibition of response to calcium chloride ligand solution, read-out: IC50 values according to the intracellular Ca assay (CaSR antagonist activity). A digest of the protocol: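 HEK293/hCaSR cells were loaded with Fura2-AM and pre-incubated with compound for 160 s at 37° C in HEPES buffer (pH 7.4, 0.8 mM CaCl2), then challenged with calcium ligand solution. Read-out was the peak 340/380 nm fluorescence ratio; inhibition is relative to no-compound (0%) and no-calcium-ligand (100%) controls.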
Regarding `CN(C[C@H](O)CNC(C)(C)CC1Cc2ccccc2C1)S(=O)(=O)c1ccc(-c2cccc(CCC(=O)O)n2)c(Cl)c1` [Exp. 9-161, (R)-3-(6-(2-chloro-4-(N-(3-(1-(2,3-dihydro-1H-inden-2-yl)-2-methylpropan-2-ylamino)-2-hydroxypropyl)-N-methylsulfamoyl)phenyl)pyridin-2-yl)propionic acid], the IC50 was at most 300 nM. The value for `Cc1cc(CCC(=O)O)sc1-c1cc(C(F)(F)F)cc(S(=O)(=O)N(C)C[C@H](O)CNC(C)(C)CCCc2ccccc2)c1` [Exp. 6-1, (R)-3-(5-(3-(N-(2-hydroxy-3-(2-methyl-5-phenylpentan-2-ylamino)propyl)-N-methylsulfamoyl)-5-(trifluoromethyl)phenyl)-4-methylthiophen-2-yl)propionic acid] was at most 300 nM. The value for `CCc1cc(-c2ccc(CCC(=O)O)cc2)ccc1S(=O)(=O)N(C)C[C@H](O)CNC(C)(C)CCCc1cccs1` [Exp. 9-92, (R)-3-(3′-ethyl-4′-(N-(2-hydroxy-3-(2-methyl-5-(thiophen-2-yl)pentan-2-ylamino)propyl)-N-methylsulfamoyl)biphenyl-4-yl)propionic acid] was at most 300 nM; that for `CN(C[C@H](O)CNC(C)(C)Cc1ccc2ccccc2c1)S(=O)(=O)c1ccc(-c2cc3c(c(C(=O)O)c2)OCC3)cc1` [Exp. 3-36, (R)-5-(4-(N-(2-hydroxy-3-(2-methyl-1-(naphthalen-2-yl)propan-2-ylamino)propyl)-N-methylsulfamoyl)phenyl)-2,3-dihydrobenzofuran-7-carboxylic acid] was 1000 to 3000 nM; that for `Cc1cc(-c2ccc(S(=O)(=O)N(C)C[C@H](O)CNC(C)(C)Cc3ccc4ccccc4c3)cc2)ccc1C(=O)O` [Exp. 3-33, (R)-4′-(N-(2-hydroxy-3-(2-methyl-1-(naphthalen-2-yl)propan-2-ylamino)propyl)-N-methylsulfamoyl)-3-methylbiphenyl-4-carboxylic acid] was 300 to 1000 nM. The result for `CN(C[C@H](O)CNC(C)(C)CC1Cc2ccccc2C1)S(=O)(=O)c1cc(-c2cc(F)cc(C(=O)O)c2)cc(C(F)(F)F)c1` [Exp. 3-128, (R)-3′-(N-(3-(1-(2,3-dihydro-1H-inden-2-yl)-2-methylpropan-2-ylamino)-2-hydroxypropyl)-N-methylsulfamoyl)-5-fluoro-5′-(trifluoromethyl)biphenyl-3-carboxylic acid] reads at most 300 nM. On to `CN(C[C@H](O)CNC(C)(C)CC1Cc2ccccc2C1)S(=O)(=O)c1cccc(-c2ccc(NC(=O)CCC(=O)O)cc2)c1` [Exp. 3-59, (R)-4-(3′-(N-(3-(1-(2,3-dihydro-1H-inden-2-yl)-2-methylpropan-2-ylamino)-2-hydroxypropyl)-N-methylsulfamoyl)biphenyl-4-ylamino)-4-oxobutanoic acid], for which the IC50 is at most 300 nM. The result for `CN(C[C@H](O)CNC(C)(C)CCCc1ccccc1)S(=O)(=O)c1cc(OCC(=O)O)cc(C(F)(F)F)c1` [Exp. 9-179, (R)-2-(3-(N-(2-hydroxy-3-(2-methyl-5-phenylpentan-2-ylamino)propyl)-N-methylsulfamoyl)-5-(trifluoromethyl)phenyloxy)acetic acid] reads at most 300 nM; that for `COCc1cc(-c2cccc(S(=O)(=O)N(C)C[C@H](O)CNC(C)(C)Cc3ccc4ccccc4c3)c2)ccc1C(=O)O` [Exp. 3-22, (R)-3′-(N-(2-hydroxy-3-(2-methyl-1-(naphthalen-2-yl)propan-2-ylamino)propyl)-N-methylsulfamoyl)-3-(methoxymethyl)biphenyl-4-carboxylic acid], 300 to 1000 nM. For the compound `CCc1cc(-c2ccc(OC)c(CCC(=O)O)c2)ccc1S(=O)(=O)N(C)C[C@H](O)CNC(C)(C)CCCc1ccccc1` [Exp. 5-30, (R)-3-(3′-ethyl-4′-(N-(2-hydroxy-3-(2-methyl-5-phenylpentan-2-ylamino)propyl)-N-methylsulfamoyl)-4-methoxybiphenyl-3-yl)propionic acid], the IC50 was at most 300 nM. The result for `CCc1cc(-c2cccc(CCC(=O)O)c2)ccc1S(=O)(=O)N(C)C[C@H](O)CNC(C)(C)CCCc1ccccc1` [Exp. 3-187, (R)-3-(3′-ethyl-4′-(N-(2-hydroxy-3-(2-methyl-5-phenylpentan-2-ylamino)propyl)-N-methylsulfamoyl)biphenyl-3-yl)propionic acid] reads at most 300 nM; that for `CN(C[C@H](O)CNC(C)(C)Cc1ccc2ccccc2c1)S(=O)(=O)c1ccc(-c2ccc(C(=O)O)cc2)cc1` [Exp. 3-31, (R)-4′-(N-(2-hydroxy-3-(2-methyl-1-(naphthalen-2-yl)propan-2-ylamino)propyl)-N-methylsulfamoyl)biphenyl-4-carboxylic acid], 300 to 1000 nM. The value for `CN(CC(O)CNC(C)(C)CC1Cc2ccccc2C1)S(=O)(=O)c1cc(C=CC(=O)O)cc(C(F)(F)F)c1` (stereo not drawn) [Exp. 11-1, 3-(3-(N-(3-(1-(2,3-dihydro-1H-inden-2-yl)-2-methylpropan-2-ylamino)-2-hydroxypropyl)-N-methylsulfamoyl)-5-(trifluoromethyl)phenyl)acrylic acid] was at most 300 nM; that for `CN(C[C@H](O)CNC(C)(C)Cc1ccc2ccccc2c1)S(=O)(=O)c1ccc(-c2cccc(C=CC(=O)O)c2)cc1` [Exp. 3-39, (R)-3-(4′-(N-(2-hydroxy-3-(2-methyl-1-(naphthalen 2-yl)propan-2-ylamino)propyl)-N-methylsulfamoyl)biphenyl-3-yl)acrylic acid] was 300 to 1000 nM; that for `CN(C[C@H](O)CNC(C)(C)Cc1ccc2ccccc2c1)S(=O)(=O)c1cccc(-c2cc(C(=O)O)cc([N+](=O)[O-])c2)c1` [Exp. 3-18, (R)-3′-(N-(2-hydroxy-3-(2-methyl-1-(naphthalen-2-yl)propan-2-ylamino)propyl)-N-methylsulfamoyl)-5-nitrobiphenyl-3-carboxylic acid] was 1000 to 3000 nM. The result for `CN(C[C@H](O)CNC(C)(C)CC1Cc2ccccc2C1)S(=O)(=O)c1ccc(-c2cc(CCC(=O)O)ccc2F)c(F)c1` [Exp. 5-23, (R)-3-(4′-(N-(3-(1-(2,3-dihydro-1H-inden-2-yl)-2-methylpropan-2-ylamino)-2-hydroxypropyl)-N-methylsulfamoyl)-2′,6-difluorobiphenyl-3-yl)propionic acid] reads at most 300 nM.

Regarding `CN(C[C@H](O)CNC(C)(C)CC1Cc2ccccc2C1)S(=O)(=O)c1cc(F)c(-c2cccc(CCC(=O)O)c2)cc1F` [Exp. 3-180, (R)-3-(4′-(N-(3-(1-(2,3-dihydro-1H-inden-2-yl)-2-methylpropan-2-ylamino)-2-hydroxypropyl)-N-methylsulfamoyl)-2′,5′-difluorobiphenyl-3-yl)propionic acid], the IC50 is at most 300 nM. The value for `CN(C[C@H](O)CNC(C)(C)Cc1ccc2ccccc2c1)S(=O)(=O)c1cccc(-c2ccc(CCC(=O)O)cc2)c1` [Exp. 3-15, (R)-3-(3′-(N-(2-hydroxy-3-(2-methyl-1-(naphthalen-2-yl)propan-2-ylamino)propyl)-N-methylsulfamoyl)biphenyl-4-yl)propionic acid] was 300 to 1000 nM; that for `CN(C[C@H](O)CNC(C)(C)Cc1ccc2ccccc2c1)S(=O)(=O)Cc1ccccc1-c1cc(F)cc(C(=O)O)c1` [Exp. 3-85, (R)-5-fluoro-2′-((N-(2-hydroxy-3-(2-methyl-1-(naphthalen-2-yl)propan-2-ylamino)propyl)-N-methylsulfamoyl)methyl)biphenyl-3-carboxylic acid] was 1000 to 3000 nM; that for `CN(C[C@H](O)CNC(C)(C)Cc1ccc2ccccc2c1)S(=O)(=O)c1ccc(-c2ccc(C(=O)O)cc2F)cc1` [Exp. 3-35, (R)-2-fluoro-4′-(N-(2-hydroxy-3-(2-methyl-1-(naphthalen-2-yl)propan-2-ylamino)propyl)-N-methylsulfamoyl)biphenyl-4-carboxylic acid] was 300 to 1000 nM.

Turning to `COc1ccc(-c2cc(S(=O)(=O)N(C)C[C@H](O)CNC(C)(C)CC3Cc4ccccc4C3)sc2Cl)cc1CCC(=O)O` [Exp. 5-29, (R)-3-(5-(2-chloro-5-(N-(3-(1-(2,3-dihydro-1H-inden-2-yl)-2-methylpropan-2-ylamino)-2-hydroxypropyl)-N-methylsulfamoyl)thiophen-3-yl)-2-methoxyphenyl)propionic acid], the IC50 is at most 300 nM.
